According to US8481540B2, “Inhibitors of bruton's tyrosine kinase” (Hoffmann-La Roche Inc., priority 2010, dated 2013):
Counter-ions that a name gives are not always drawn. Like-named read-outs stand apart in the source and are kept apart here.

System: B cells in human blood
Experiment: Inhibition of B cell activation in whole blood measured by CD69 expression
Assay type: cell-based
Details: read-out: Human Whole Blood
Method: Inhibition of B Cell Activation in Whole Blood Measured by CD69 Expression
A procedure to test the ability of Btk inhibitors to suppress B cell receptor-mediated activation of B cells in human blood is as follows:
Human whole blood (HWB) is obtained from healthy volunteers, with the following restrictions: 24 hr drug-free, non-smokers. Blood is collected by venipuncture into Vacutainer tubes anticoagulated with sodium heparin. Test compounds are diluted to […] the desired starting drug concentration in PBS (20×), followed by three-fold serial dilutions in 10% DMSO in PBS to produce a nine point dose-response curve. 5.5 μl of each compound dilution is added in duplicate to a 2 ml96-well V bottom plate (Analytical Sales and Services, #59623-23); 5.5 μl of 10% DMSO in PBS is added to control and no-stimulus wells. HWB (100 μl) is added to each well, and after mixing the plates are incubated at 37 C, 5% CO2, 100% humidity for 30 minutes. Goat F(ab′)2 anti-human IgM (Southern Biotech, #2022-14) (10 μl of a […] solution, 50 μg/ml final concentration) is added to each well (except the no-stimulus wells) with mixing and the plates are incubated for an additional 20 hours.
At the end of the 20 hour incubation, samples are incubated with florescent-probe-labeled anti-bodies (15 μl PE Mouse anti-Human CD20, BD Pharmingen, #555623, and/or 20 ul APC Mouse anti-Human CD69, BD Pharmingen #555533) for 30 minutes, at 37 C, 5% CO2, 100% humidity. Included are induced control, unstained and single stains for compensation adjustments and initial voltage settings. Samples are then lysed with 1 ml of 1× Pharmingen Lyse Buffer (BD Pharmingen #555899), and plates are centrifuged at 1800 rpm for 5 minutes. Supernatants are removed via suction and the remaining pellets are lysed again with another 1 ml of 1× Pharmingen Lyse Buffer, and plates are spun down as before. Supernatants are aspirated and remaining pellets are washed in FACs buffer (PBS+1% FBS). After a final spin, the supernantants are removed and pellets are resuspended in 180 μl of FACs buffer. Samples are transferred to a 96 well plate suitable to be run on the HTS 96 well system on the BD LSR II flow cytometer.
Using appropriate excitation and emission wavelengths for the fluorophores used, data are acquired and percent positive cell values are obtained using Cell Quest Software. Results are initially analyzed by FACS analysis software (Flow Jo). […] The IC50 values are calculated using XLfit software version 3, equation 201.
Representative compound data for this assay are listed below in Table II.

[1] = CD69-positive, CD20-positive cells after anti-IgM stimulation, human whole blood, 20 hours

IC50 [1] [nM]	Compound	IC50 (Homo sapiens, 20 h) [nM]
9	Cn1nc(-c2cccc(-n3ncc4cc(C(C)(C)C)cc(F)c4c3=O)c2CO)cc(Nc2ccc(OC(C)(C)CN3CCC3)cn2)c1=O [I-13, 2-(3-{5-[5-(2-azetidin-1-yl-1,1-dimethyl-ethoxy)-pyridin-2-ylamino]-1-methyl-6-oxo-1,6-dihydro-pyridazin-3-yl}-2-hydroxymethyl-phenyl)-6-tert-butyl-8-fluoro-2H-phthalazin-1-one]	–
41	COC[C@@H](O)COc1ccc(Nc2cc(-c3cccc(-n4ncc5cc(C(C)(C)C)cc(F)c5c4=O)c3CO)nn(C)c2=O)nc1 [I-17]	–
14	COCCN(C)Cc1ccc(Nc2cc(-c3cccc(-n4ncc5cc(C(C)(C)C)cc(F)c5c4=O)c3CO)nn(C)c2=O)nc1 [I-44, 6-tert-Butyl-8-fluoro-2-{2-hydroxymethyl-3-[5-(5-{[(2-methoxy-ethyl)-methyl-amino]-methyl}-pyridin-2-ylamino)-1-methyl-6-oxo-1,6-dihydro-pyridazin-3-yl]-phenyl}-2H-phthalazin-1-one]	–
32	Cc1cc(Nc2cc(-c3cccc(-n4ncc5cc(C(C)(C)C)cc(F)c5c4=O)c3CO)nn(C)c2=O)nn1C [I-31, 6-tert-Butyl-2-{3-[5-(1,5-dimethyl-1H-pyrazol-3-ylamino)-1-methyl-6-oxo-1,6-dihydro-pyridazin-3-yl]-2-hydroxymethyl-phenyl}-8-fluoro-2H-phthalazin-1-one]	–
–	CN1CCC(c2ccc(Nc3cc(-c4cccc(-n5ncc6cc(C(C)(C)C)cc(F)c6c5=O)c4CO)nn(C)c3=O)nc2)CC1 [I-67, 6-tert-Butyl-8-fluoro-2-{2-hydroxymethyl-3-[1-methyl-5-(1′-methyl-1′,2′,3′,4′,5′,6′-hexahydro-[3,4]bipyridinyl-6-ylamino)-6-oxo-1,6-dihydro-pyridazin-3-yl]-phenyl}-2H-phthalazin-1-one]	4
17	CN1CCN(c2ccc(Nc3cc(-c4cccc(-n5ncc6cc(C(C)(C)C)cc(F)c6c5=O)c4CO)nn(C)c3=O)nc2)CC1 [I-56, 6-tert-Butyl-8-fluoro-2-(2-hydroxymethyl-3-{1-methyl-5-[5-(4-methyl-piperazin-1-yl)-pyridin-2-ylamino]-6-oxo-1,6-dihydro-pyridazin-3-yl}-phenyl)-2H-phthalazin-1-one]	–
41	Cn1nc(-c2cccc(-n3ncc4cc(C(C)(C)C)cc(F)c4c3=O)c2CO)cc(Nc2ccc(C(=O)N3CCC(O)CC3)cn2)c1=O [I-55, 6-tert-butyl-8-fluoro-2-(2-(hydroxymethyl)-3-(5-(5-(4-hydroxypiperidine-1-carbonyl)pyridin-2-ylamino)-1-methyl-6-oxo-1,6-dihydropyridazin-3-yl)phenyl)phthalazin-1(2H)-one]	–
185	Cn1nc(-c2cccc(-n3ncc4cc(C(C)(C)C)cc(F)c4c3=O)c2CO)cc(Nc2ccc(C(=O)N3CCS(=O)(=O)CC3)cn2)c1=O [I-48, 6-tert-Butyl-2-(3-{5-[5-(1,1-dioxo-1λ^6-thiomorpholine-4-carbonyl)-pyridin-2-ylamino]-1-methyl-6-oxo-1,6-dihydro-pyridazin-3-yl}-2-hydroxymethyl-phenyl)-8-fluoro-2H-phthalazin-1-one]	–
485	CN1CCC(c2ccc(Nc3cc(-c4cccc(-n5ccc6cc(C(C)(C)C#N)cc(F)c6c5=O)c4CO)nn(C)c3=O)nc2)C1 (stereo in doubt) [I-89, 2-[8-Fluoro-2-(2-hydroxymethyl-3-{1-methyl-5-[5-((S)-1-methyl-pyrrolidin-3-yl)-pyridin-2-ylamino]-6-oxo-1,6-dihydro-pyridazin-3-yl}-phenyl)-1-oxo-1,2-dihydro-isoquinolin-6-yl]-2-methyl-propionitrile]	–
17	CCN1CCn2nc(Nc3cc(-c4cccc(-n5ncc6cc(C(C)(C)C)cc(F)c6c5=O)c4CO)nn(C)c3=O)cc2C1 [I-82, 6-tert-Butyl-2-{3-[5-(5-ethyl-4,5,6,7-tetrahydro-pyrazolo[1,5-a]pyrazin-2-ylamino)-1-methyl-6-oxo-1,6-dihydro-pyridazin-3-yl]-2-hydroxymethyl-phenyl}-8-fluoro-2H-phthalazin-1-one]	–
3	CN1CCC[C@H]1c1ccc(Nc2cc(-c3cccc(-n4ncc5cc(C(C)(C)C)cc(F)c5c4=O)c3CO)nn(C)c2=O)nc1 [I-18, 6-tert-Butyl-8-fluoro-2-(2-hydroxymethyl-3-{1-methyl-5-[5-((S)-1-methyl-pyrrolidin-2-yl)-pyridin-2-ylamino]-6-oxo-1,6-dihydro-pyridazin-3-yl}-phenyl)-2H-phthalazin-1-one]	–
203	CN1C[C@@H]2C[C@H]1CN2c1cnc(Nc2cc(-c3cccc(-n4ncc5cc(C(C)(C)C)cc(F)c5c4=O)c3CO)nn(C)c2=O)cn1 [I-88, 6-tert-Butyl-8-fluoro-2-(2-hydroxymethyl-3-{1-methyl-5-[5((1S,4S)-5-methyl-2,5-diaza-bicyclo[2.2.1]hept-2-yl)-pyrazin-2-ylamino]-6-oxo-1,6-dihydro-pyridazin-3-yl}-phenyl)-2H-phthalazin-1-one]	–
65	Cn1nc(-c2cccc(-n3ncc4cc(C(C)(C)C)cc(F)c4c3=O)c2CO)cc(Nc2ccc(OCC(C)(C)O)cn2)c1=O [I-14, 6-tert-butyl-8-fluoro-2-(2-hydroxymethyl-3-{5-[5-(2-hydroxy-2-methyl-propoxy)-pyridin-2-ylamino]-1-methyl-6-oxo-1,6-dihydro-pyridazin-3-yl}-phenyl)-2H-phthalazin-1-one]	–
27	CN(CCO)C(=O)c1ccc(Nc2cc(-c3cccc(-n4ncc5cc(C(C)(C)C)cc(F)c5c4=O)c3CO)nn(C)c2=O)nc1 [I-52, 6-(6-(3-(6-tert-butyl-8-fluoro-1-oxophthalazin-2(1H)-yl)-2-(hydroxymethyl)phenyl)-2-methyl-3-oxo-2,3-dihydropyridazin-4-ylamino)-N-(2-hydroxyethyl)-N-methylnicotinamide]	–
89	CC(C)N1CCN(c2ccc(Nc3cc(-c4cccc(-n5ncc6cc(C(C)(C)C)cc(F)c6c5=O)c4CO)nn(C)c3=O)nc2)CC1 [I-27, 6-tert-Butyl-8-fluoro-2-(2-hydroxymethyl-3-{5-[5-(4-isopropyl-piperazin-1-yl)-pyridin-2-ylamino]-1-methyl-6-oxo-1,6-dihydro-pyridazin-3-yl}-phenyl)-2H-phthalazin-1-one HCl]	–
6	CN1CCC(c2ccc(Nc3cc(-c4cccc(-n5ncc6cc(C(C)(C)C)cc(F)c6c5=O)c4CO)nn(C)c3=O)nc2)C1 (centres unmarked) [I-28, 6-tert-Butyl-8-fluoro-2-(2-hydroxymethyl-3-{1-methyl-5-[5-(1-methyl-pyrrolidin-3-yl)-pyridin-2-ylamino]-6-oxo-1,6-dihydro-pyridazin-3-yl}-phenyl)-2H-phthalazin-1-one]	–

Compound	IC50 [1] [nM]	IC50 (Homo sapiens, 20 h) [nM]
CN1C[C@H]2CC[C@@H](C1)N2c1ccc(Nc2cc(-c3cccc(-n4ncc5cc(C(C)(C)C)cc(F)c5c4=O)c3CO)nn(C)c2=O)nc1 [I-66, 6-tert-Butyl-8-fluoro-2-(2-hydroxymethyl-3-{1-methyl-5-[5-((1R,5S)-3-methyl-3,8-diaza-bicyclo[3.2.1]oct-8-yl)-pyridin-2-ylamino]-6-oxo-1,6-dihydro-pyridazin-3-yl}-phenyl)-2H-phthalazin-1-one]	23	–
